Values joined by “and” are separate entries in the source; they are usually repeats but may differ in a detail not shown here. Equal values may be shown once. Marks after values point to notes of the source that are not given here.
Tests used:
[1] = test system: breast tumors in female FVB mice transgenic for HER-2/neu; assay: Antitumor activity on model of multiple breast tumors in HER-2/neu transgenic mice
Experimental: Two adenocarcinoma subtypes can be differentiated, in particular ER+, PR−, and ER−, PR− [2].
The study was carried out in female FVB mice transgenic for HER-2/neu by conventional category; the strain was obtained from the mouse bank Charles River Laboratories (Italy). At the beginning of the study the animals were 21-41 weeks old having weight of 25 to 30 g.
The study medicament was administered i.g. using a metal atraumatic gavage (with the procedure corresponds to the oral route of administration in clinical settings). The medicament was administered in a single daily dose (20 mg/kg of body weight) and 5-fold daily dose of 100 mg/kg of body weight. Ex tempore solutions of the medicament for administration were prepared in olive oil (refined olive oil supplemented with unrefined extra virgin olive oil available under Global Village “Clasico” trademark, lot L:183351116, expiry date 26 Apr. 2020, BAIEO, Spain). The administered volume was 0.1 ml per 10 g of a mouse body weight (0.2 ml of a ready-to-use formulation for a mouse of 20 g). The medicament administration was started 24 hours after the randomization. The duration of the administration course was 27-28 days.
This dose corresponds to a human daily dose of 20 mg/kg.
The control groups were given the olive oil (placebo).
The evaluation criteria included the clinical observation data, animals body weights, time of death (if applicable), tumor growth over time, pathomorphological examination data (verification of a neoplasm during autopsy, assessment of toxic effects by macroscopic presentation of changes in the internal organs).
The animals body weights were recorded before the first administration of the medicaments and then twice per week using a verified high-speed electronic laboratory balance Ohaus Scout Pro (USA) with a maximum load of 2000 g and a measurement step of 0.1 g.
Macroscopically detectable tumor nodes were measured in animals once per week during weighing process. Two linear dimensions including the largest one and the largest rectangular to the former were recorded for each of the nodes. The largest dimension was taken as a length (a) and the second dimension as a width (b) of the tumor nodes. A tumor volume was calculated by the expression as follows: […]
The efficacy of the therapy was assessed by recording a change in the average tumor volume, tumor growth inhibition (TGI), and the average total tumor volumes and its change over time in each of the mice.
The percent of tumor growth inhibition was calculated by the expression as follows:
TGI=(Vctrl−Vexp)/Vctrl×100(%),
where Vctrl is an average tumor volume in a control group, and Vexp is an average tumor volume in an experimental group.
The primary data from individual forms were transferred to Microsoft Excel 2007 books. The group arithmetic average (M) and standard deviation (m) were calculated for all quantitative data. The statistical analysis was performed using the statistical software GraphPad Prism 6.0. The differences between the groups were assessed using ANOVA regression analysis and the Fisher's exact test.

[2] = test system: FVB mice transgenic for HER-2/neu; assay: Acute oral toxicity, OECD 423 test; format: in vivo
[3] = Acute oral toxicity, OECD 423 test; format: in vivo; settings: female, FVB transgenic for HER-2/neu, mouse, in vivo, po, oral (i.g.), OECD 423
[4] = test system: patients having metastases spread into axillary lymph nodes; assay: Chemotherapy of patients with axillary lymph node metastases; format: in vivo, human
[5] = 100 mg/kg i.g. daily, Day 27 vs Day −1

C[C@H]1Oc2cc(OS(N)(=O)=O)ccc2[C@H]2CC[C@]3(C)C(=O)CCC[C@H]3[C@H]21 [compound of formula (1), 3-O-sulphamoyloxy-7β-methyl-D-homo-6-oxa-8α-estra-1,3,5(10)-trien-17a-one]
Average volume of tumors present at the beginning of the experiment (M) ([1]; 100 mg/kg i.g. daily, Day 20): 0.55 cm^3 | Relative change of the average total volume of tumors to that of Day −1 (M) ([1]; 100 mg/kg i.g. daily, Day 20): 139* % | TGI (average total tumor volume) ([1]; 100 mg/kg i.g. daily, Day 20): 10% | TGI (average tumor volume) ([1]; 100 mg/kg i.g. daily, Day 20): 17% | Average total volume of tumors in mice (M) ([1]; 100 mg/kg i.g. daily, Day 27): 1.74 cm^3 | Average volume of tumors present at the beginning of the experiment (M) ([1]; 100 mg/kg i.g. daily, Day 27): 0.7 cm^3 | Relative change of the average total volume of tumors to that of Day −1 (M) ([1]; 100 mg/kg i.g. daily, Day 27): 198** % | TGI (average total tumor volume) ([1]; 100 mg/kg i.g. daily, Day 27): 15% | TGI (average tumor volume) ([1]; 100 mg/kg i.g. daily, Day 27): 21% | % of change from baseline (average total tumor volume) [1, 5]: 102% | % of change to the initial value (average tumor volume) [1, 5]: 106% | Average total volume of tumors in mice (M) ([1]; 100 mg/kg i.g. daily, Day −1): 0.86 cm^3 | Average volume of tumors present at the beginning of the experiment (M) ([1]; 100 mg/kg i.g. daily, Day −1): 0.34 cm^3 | Relative change of the average total volume of tumors to that of Day −1 (M) ([1]; 100 mg/kg i.g. daily, Day −1): 0% | TGI (average total tumor volume) ([1]; 100 mg/kg i.g. daily, Day −1): −105% | TGI (average tumor volume) ([1]; 100 mg/kg i.g. daily, Day −1): −89% | Average volume of new tumors, % less than that of the control group ([1]; 100 mg/kg i.g. daily, end of observation): 39% | Absolute number of new tumors ([1]; 100 mg/kg i.g. daily, end of study): 25 | Frequency of tumor stabilizations ([1]; 100 mg/kg i.g. daily, end of study, volume not increased by more than 20%): 16% | Average volume of new tumors at the end of the observation period (M) ([1]; 100 mg/kg i.g. daily, listed as medicament): 0.20±0.05 cm^3 and 0.20 cm^3 | Tumor growth inhibition compared to Tamoxifen ([1]; FVB mice transgenic for HER-2/neu with breast tumors): inhibits tumor growth to the same extent as clinically approved Tamoxifen | Signs of toxic damage to the internal organs at autopsy ([1]; end of the experiment, 27-28 days of administration): No specific signs of toxic damage to the internal organs were detected | Lethal effects (dead/total) ([2]; 300 mg/kg single i.g. dose): 0/6 | Body weight, average ([2]; 300 mg/kg single i.g. dose, Day 1 (before administration)): 28.7 g | Body weight, individual mice ([2]; 300 mg/kg single i.g. dose, Day 1 (before administration), listed as medicament): 26.4 and 28.2 and 30.0 and 29.0 (2×) and 29.5 | Body weight, average ([2]; 300 mg/kg single i.g. dose, Day 2): 28.8 g | Body weight, individual mice ([2]; 300 mg/kg single i.g. dose, Day 2, listed as medicament, in g (unit assumed)): 26.4 and 28.0 and 30.8 and 29.6 and 28.6 and 29.2 | Body weight, average ([2]; 300 mg/kg single i.g. dose, Day 7): 29.6 g | Body weight, individual mice ([2]; 300 mg/kg single i.g. dose, Day 7, listed as medicament, in g (unit assumed)): 27.0 and 28.4 and 30.8 and 31.2 and 30.4 and 29.6 | Body weight, average ([2]; 300 mg/kg single i.g. dose, Day 14): 29.6 g | Body weight, individual mice ([2]; 300 mg/kg single i.g. dose, Day 14, listed as medicament, in g (unit assumed)): 27.2 and 28.6 and 30.3 and 31.0 and 30.6 and 29.8 | Lethal effects (dead/total) ([2]; 300 mg/kg single i.g. dose, listed as medicament): no animals deaths | Average body weight, % from baseline ([2]; 300 mg/kg, Day 2): (0) % | Average body weight, % from baseline ([2]; 300 mg/kg, Day 7): (3) % | Average body weight, % from baseline ([2]; 300 mg/kg, Day 14): (3) % | Visual signs of intoxication ([2]; 300 mg/kg, entire observation period): None of the animals exhibited visual signs of intoxication | Clinical signs of intoxication ([2]; 2000 mg/kg): No clinical signs of intoxication were observed | Lethal effects (dead/total) ([2]; 2000 mg/kg i.g.): 0/6 | Body weight, average ([2]; 2000 mg/kg i.g., Day 2): 26.3 g | Body weight, average ([2]; 2000 mg/kg i.g., Day 7): 25.9 g | Body weight, average ([2]; 2000 mg/kg i.g., Day 14): 27.2 g | Average body weight, % from baseline ([2]; 2000 mg/kg, Day 2): (−3) % | Average body weight, % from baseline ([2]; 2000 mg/kg, Day 7): (−4) % | Decrease of body weight from the initial weight ([2]; 2000 mg/kg, Day 7): 4% | Average body weight, % from baseline ([2]; 2000 mg/kg, Day 14): (0) % | Macroscopic changes of the internal organs at autopsy ([2]; Day 15): no changes of the internal organs were detected | LD50 at 14 days [3]: ≥ 5000 mg/kg | Overall survival rate ([4]; as compared to the Tamoxifen treated group): increase the overall survival rate | Prolongation of recurrence-free survival rate ([4]; as compared to the untreated group): 11%

From patent US20220106282A1, “TREATMENT FOR BREAST CANCER, INCLUDING TRIPLE-NEGATIVE BREAST CANCER” (priority 2018, published 2022)
